Measurements as given in the NIST ThermoML archive (doi:10.1016/j.fluid.2008.09.022).

Assay: relative permittivity at various frequencies (dimensionless)
Details: Liquid, Frequency=0.01 MHz, Parallel plate capacitor

CC(F)(F)F [1,1,1-trifluoroethane]
Details	relative permittivity
218.12 K, 2000 kPa	16.968
218.13 K, 3000 kPa	17.006
218.16 K, 4000 kPa	17.043
218.17 K, 5000 kPa	17.076
218.18 K, 11000 kPa	17.303
218.19 K, 6000 kPa	17.111
218.21 K, 7000 kPa	17.147
218.22 K, 10000 kPa	17.264
218.23 K, 8000 kPa	17.184
218.23 K, 9000 kPa	17.224
218.24 K, 12000 kPa	17.326
218.43 K, 13000 kPa	17.338
218.45 K, 14000 kPa	17.37
218.48 K, 15000 kPa	17.403
223.96 K, 15000 kPa	16.732
223.97 K, 13000 kPa	16.66
223.97 K, 14000 kPa	16.696
223.98 K, 12000 kPa	16.622
224 K, 2000 kPa	16.227
224 K, 3000 kPa	16.267
224 K, 4000 kPa	16.308
224 K, 5000 kPa	16.349
224 K, 6000 kPa	16.389
224 K, 7000 kPa	16.432
224 K, 8000 kPa	16.486
224 K, 9000 kPa	16.506
224 K, 10000 kPa	16.547
224 K, 11000 kPa	16.582
232.97 K, 14000 kPa	15.659
232.97 K, 15000 kPa	15.697
232.98 K, 13000 kPa	15.622
232.99 K, 9000 kPa	15.465
232.99 K, 10000 kPa	15.503
232.99 K, 12000 kPa	15.581
233 K, 6000 kPa	15.343
233 K, 7000 kPa	15.387
233 K, 8000 kPa	15.424
233 K, 11000 kPa	15.543
233.01 K, 2000 kPa	15.164
233.01 K, 3000 kPa	15.207
233.01 K, 4000 kPa	15.253
233.01 K, 5000 kPa	15.298
243.15 K, 14000 kPa	14.59
243.15 K, 15000 kPa	14.629
243.16 K, 2000 kPa	14.061
243.16 K, 3000 kPa	14.108
243.16 K, 4000 kPa	14.158
243.16 K, 5000 kPa	14.203
243.16 K, 6000 kPa	14.254
243.16 K, 7000 kPa	14.298
243.16 K, 9000 kPa	14.386
243.16 K, 10000 kPa	14.43
243.16 K, 11000 kPa	14.469
243.16 K, 12000 kPa	14.51
243.16 K, 13000 kPa	14.552
243.17 K, 8000 kPa	14.34
253.13 K, 2000 kPa	13.05
253.13 K, 6000 kPa	13.264
253.13 K, 8000 kPa	13.362
253.13 K, 9000 kPa	13.407
253.13 K, 15000 kPa	13.669
253.14 K, 3000 kPa	13.106
253.14 K, 4000 kPa	13.16
253.14 K, 5000 kPa	13.209
253.14 K, 7000 kPa	13.311
253.14 K, 10000 kPa	13.455
253.14 K, 11000 kPa	13.5
253.14 K, 12000 kPa	13.543
253.14 K, 14000 kPa	13.628
253.15 K, 13000 kPa	13.585
263.02 K, 2000 kPa	12.145
263.02 K, 12000 kPa	12.685
263.02 K, 13000 kPa	12.733
263.03 K, 3000 kPa	12.203
263.03 K, 4000 kPa	12.264
263.03 K, 6000 kPa	12.379
263.03 K, 7000 kPa	12.431
263.03 K, 8000 kPa	12.485
263.03 K, 10000 kPa	12.586
263.03 K, 11000 kPa	12.636
263.03 K, 14000 kPa	12.777
263.03 K, 15000 kPa	12.821
263.04 K, 5000 kPa	12.319
263.04 K, 9000 kPa	12.536
274.42 K, 2000 kPa	11.141
274.42 K, 3000 kPa	11.215
274.42 K, 4000 kPa	11.284
274.43 K, 5000 kPa	11.346
274.43 K, 6000 kPa	11.411
274.43 K, 7000 kPa	11.471
274.43 K, 9000 kPa	11.588
274.43 K, 10000 kPa	11.644
274.43 K, 12000 kPa	11.749
274.44 K, 8000 kPa	11.528
274.44 K, 11000 kPa	11.696
274.44 K, 13000 kPa	11.798
274.44 K, 14000 kPa	11.846
274.44 K, 15000 kPa	11.895
283.16 K, 2000 kPa	10.568
283.16 K, 3000 kPa	10.641
283.16 K, 4000 kPa	10.72
283.16 K, 5000 kPa	10.796
283.17 K, 6000 kPa	10.867
283.17 K, 7000 kPa	10.936
283.17 K, 8000 kPa	11.002
283.17 K, 9000 kPa	11.066
283.18 K, 10000 kPa	11.125
283.18 K, 11000 kPa	11.183
283.18 K, 12000 kPa	11.239
283.19 K, 13000 kPa	11.293
283.19 K, 14000 kPa	11.346
283.2 K, 15000 kPa	11.397
294.1 K, 2000 kPa	9.617
294.1 K, 3000 kPa	9.7189
294.11 K, 4000 kPa	9.8137
294.11 K, 5000 kPa	9.9019
294.11 K, 6000 kPa	9.9864
294.11 K, 7000 kPa	10.066
294.11 K, 9000 kPa	10.213
294.11 K, 10000 kPa	10.281
294.11 K, 11000 kPa	10.347
294.11 K, 15000 kPa	10.585
294.12 K, 8000 kPa	10.141
294.12 K, 12000 kPa	10.409
294.12 K, 13000 kPa	10.469
294.12 K, 14000 kPa	10.526
